# Measurements taken from article PMC12392461, “Beyond Estrogenicity: A Comparative Assessment of Bisphenol A and Its Alternatives in In Vitro Assays Questions Safety of Replacements” (Environmental Science & Technology, 2025).
# Columns and labels:
# [1] = Acidity constant (pKa) measurement, Sirius T3 UV-metric, and speciation at pH 7.4; settings: for Double negative form (pH = 7.40) / Negative form (pH = 7.40) / Neutral form (pH = 7.40) / αneutral % (fraction of neutral species): from experimental pKa; for αneutral % (fraction of neutral species): pH 7.4; for pKa: pKa (Acid), experimental, this study
# SH-SY5Y cells = settings: for IC10, linear: linear model; for logIC10: log-logistic model
# Summary of the method: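 Cytotoxicity was scored by live–dead nuclear staining (Nuclear Green LCS1 plus propidium iodide) after 24 h chemical exposure at 37° C. Cells were retinoic acid-differentiated (10 µM) and held in medium with 2% B-27 and 2 mM GlutaMAX. Duplicate 11-point dilution series were used, and IC10 was derived.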
# [2] = Abiotic CYP (aCYP) oxidation, remaining parent compound (Cparent-Ratio); settings: for Cparent-Ratio Rep.1 %: Table S9, replicate 1; for Cparent-Ratio Rep.2 %: Table S9, replicate 2
# [3] = NOI bioassay cytotoxicity, dosing range all
# [4] = Table S9, loss of parent after aCYP oxidation
# [5] = Table S9, mean of two replicate experiments
# [6] = Table S9, replicate 1, as fraction
# [7] = Table S9, replicate 2, as fraction
# [8] = Table S11, measured simultaneously with bioassay
Structure (SMILES),Double negative form (pH = 7.40) [1],Negative form (pH = 7.40) [1],Neutral form (pH = 7.40) [1],αneutral % (fraction of neutral species) [1],"IC10, linear (SH-SY5Y cells; [3])",logIC10 (SH-SY5Y cells; [3]),"% Loss [2, 4]","Cparent-Ratio Mean [2, 5]",Cparent-Ratio Rep.1 % [2],"Cparent-Ratio Rep.1 [2, 6]",Cparent-Ratio Rep.2 % [2],"Cparent-Ratio Rep.2 [2, 7]",further results
"CC(C)c1cc(C(C)(C)c2ccc(O)c(C(C)C)c2)ccc1O [BPG, 2,2-Bis(4-hydroxy-3-isopropylphenyl)propane]",4.07e-6%,0.0363%,100%,100%,no cytotoxicity,-4.44,15%,0.85,67.85%,0.68,102.05%,1.02,"pKa ([1]; second pKa column): 11.3; pKa [1]: 10.8; IC10, linear transformed (SH-SY5Y cells; [3]): 3.61E-05; Toxic ratio (TR) TRNOI (SH-SY5Y cells; against baseline cytotoxicity): 0.08; IC10, SH-S5Y5, NOI (SH-SY5Y cells; cytotoxicity, NOI assay cells): 36.1 µM; % Loss ([2]; Table S11): 34%; Cparent-Ratio Mean [2, 8]: 0.66; Cparent-Ratio Rep.1 [2, 8]: 0.79; Cparent-Ratio Rep.2 [2, 8]: 0.53"
"CC1(C)C(O)C(C)(C)C1O (racemic) [r-TMCD, 2,2,4,4-Tetramethyl-1,3-cyclobutanediol (racemate)]",0%,0%,100%,100%,no cytotoxicity,no cytotoxicity,1.72%,0.98,94.58%,0.95,101.99%,1.02,–
